Source: US8716285B2, “N-hydroxy-benzamids for the treatment of cancer” (Hoffmann-La Roche Inc., priority 2010, dated 2014)

Tests used:
recombinant human HDAC8 = recombinant human HDAC8 (Homo sapiens (Human), UniProt Q9BY41); experiment: HDAC8 inhibition: recombinant HDAC8 fluorometric assay; assay type: biochemical; settings: recombinant human HDAC8, substrate Ac-Arg-His-Lys-Lys(ε-acetyl)-AMC
Experimental: A competitive inhibitory assay of HDAC8 was carried out by using recombinant HDAC8 and a commercial substrate Ac-Arg-His-Lys-Lys(ε-acetyl)-AMC.
Compounds were tested for their ability to inhibit histone deacetylase 8 using an in vitro deacetylation assay. The enzyme source for this assay was recombinant human HDAC8 protein expressed and purified from insect cells. […] The substrate consisted of a commercial product Ac-Arg-His-Lys-Lys(ε-acetyl)-AMC (substrate is available from Cayman Chemical). […] In a detailed procedure, 8 μl of HDAC8 enzyme solution (0.125 μg/μl) was transferred to assay plates (CORNING 3676). 1 μl of half-log diluted compounds were added into wells and incubated for 15 min at rt. After that, 8 μl of substrate solution was transferred to the wells and incubated for 30 min at rt. After deacetylation of the substrate by incubation with HDAC8 enzyme, subsequent exposure to a developing reagent produced a fluorophore that was directly proportional to the level of deacetylation. So 4 μl of developer regent (Cayman 10006394) was added into the wells in the assay plates and incubated for 15 min. The fluorescence signal was measured by a FlexStation3 plate reader (excitation wave length 340-360 nm; emission wave length 440-465 nm). The IC50 was calculated after normalization and curve fitting using XLfit4.0 software. Inhibition %=[Mean(top)−signal(sample)]*100/[Mean(top)−Mean(bottom)].

HDAC6 = HDAC6 (Homo sapiens (Human), UniProt Q9UBN7); experiment: Tubulin acetylation cytoblot assay (A549 cells); assay type: cell-based; settings: 17-18 h, concentration for 50% induction of acetylated tubulin, read-out: Tub-ac EC50
Chain of HDAC6 (Q9UBN7 whole entry): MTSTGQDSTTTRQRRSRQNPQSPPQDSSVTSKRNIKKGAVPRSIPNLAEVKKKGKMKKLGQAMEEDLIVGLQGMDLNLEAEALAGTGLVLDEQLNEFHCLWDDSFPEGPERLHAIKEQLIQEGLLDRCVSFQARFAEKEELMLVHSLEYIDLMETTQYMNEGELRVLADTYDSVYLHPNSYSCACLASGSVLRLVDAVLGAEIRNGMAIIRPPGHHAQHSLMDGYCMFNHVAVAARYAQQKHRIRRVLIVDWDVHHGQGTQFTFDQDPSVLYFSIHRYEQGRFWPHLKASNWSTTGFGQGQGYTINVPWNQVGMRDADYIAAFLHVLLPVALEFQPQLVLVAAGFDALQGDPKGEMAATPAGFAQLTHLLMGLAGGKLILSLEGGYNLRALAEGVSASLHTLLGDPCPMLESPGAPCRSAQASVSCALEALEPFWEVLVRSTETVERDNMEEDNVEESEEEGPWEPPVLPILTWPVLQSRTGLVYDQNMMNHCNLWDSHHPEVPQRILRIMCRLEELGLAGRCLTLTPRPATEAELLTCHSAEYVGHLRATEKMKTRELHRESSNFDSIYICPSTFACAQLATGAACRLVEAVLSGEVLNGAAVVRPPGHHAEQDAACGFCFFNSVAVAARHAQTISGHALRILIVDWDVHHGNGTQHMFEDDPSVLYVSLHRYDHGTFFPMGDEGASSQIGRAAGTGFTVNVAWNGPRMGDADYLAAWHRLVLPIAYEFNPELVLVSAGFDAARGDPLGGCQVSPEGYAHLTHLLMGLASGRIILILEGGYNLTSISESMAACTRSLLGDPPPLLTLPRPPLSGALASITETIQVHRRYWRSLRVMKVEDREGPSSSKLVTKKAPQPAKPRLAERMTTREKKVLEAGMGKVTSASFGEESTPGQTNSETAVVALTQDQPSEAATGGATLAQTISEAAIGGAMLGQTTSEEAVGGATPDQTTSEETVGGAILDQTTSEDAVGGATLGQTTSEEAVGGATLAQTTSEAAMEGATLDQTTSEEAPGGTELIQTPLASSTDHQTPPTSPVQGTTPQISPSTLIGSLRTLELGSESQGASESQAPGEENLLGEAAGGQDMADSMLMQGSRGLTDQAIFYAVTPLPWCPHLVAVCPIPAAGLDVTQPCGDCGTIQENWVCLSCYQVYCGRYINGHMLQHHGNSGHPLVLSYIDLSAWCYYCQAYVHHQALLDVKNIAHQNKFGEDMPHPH
Experimental: Tubulin acetylation is a PD marker for HDAC6 inhibition. The extent of tubulin acetylation represents the inhibitory effect on HDAC6.
Novel compounds were tested for their ability to inhibit HDAC6 using a cell-based deacetylation assay. Tubulin acetylation was detected by the anti-acetylated tubulin antibody (Sigma) and horse radish peroxidase (HRP) conjugated secondary antibody (KangChen Bio. Tech.). […] 20 μl of diluted compound solution was transferred to the cell culture plate and incubated for 17-18 h. After medium removal and fixation by formaldehyde (3.7% paraformaldehyde in TBS), the cells in the plates were treated with 180 μl of −20° C. MeOH and incubated for 5 min at rt. The cell lysis was incubated with 75 μl of primary anti-acetylated tubulin antibody and secondary HRP conjugated antibody solution (1:750 anti-acetylated tubulin, 1:750 HRP conjugated anti-mouse IgG in antibody dilution buffer not containing sodium azide) for 4 h at 4° C. By adding the HRP substrate, enhanced chemiluminescence (ECL) reagent (GE Healthcare) generated luminescence corresponding to the level of tubulin acetylation. So that 75 μl of ECL was added into the wells and the luminescence from each well was immediately quantified by the plate reader. Based on the luminescence reading, the IC50s against HDAC6 of the tested compounds were calculated by plotting the curve with XLfit4.0 software. Inhibition %=[signal(sample)−Mean(bottom)]*100/[Mean(top)−Mean(bottom)]

[1] = tested on: p21 promoter-luciferase construct; experiment: p21 reporter gene induction in HeLa cells transfected with p21 promoter-luciferase construct; assay type: cell-based; settings: for p21 RP3: relative gene level of p21 induced compared to MS275 at 3 μM; for p21 RP10: relative level of p21 induced compared to MS275 at 10 μM; for p21 RP30: relative level of p21 induced compared to MS275 at 30 μM
Experimental: As a surrogate for in-cell HDAC1/2/3 inhibition, p21 induction was used as a counterscreen to evaluate the selectivity of the compounds in the present invention toward HDAC6 or HDAC8.
The novel compounds of the present invention were tested for their ability to induce p21 gene expression using a reporter gene assay involving HeLa cells transfected with a p21 promoter-luciferase construct. The p21 promoter contained the Sp1/Sp3 binding site for HDAC but not the upstream p53 binding site. Briefly, the day before transfection, HeLa cells were seeded at 11,000 cells/well in a 96-well culture plate and incubated at 37° C. in 5% CO2 overnight. A transfection media was prepared prior to transfection according to the following procedure: (1) 5 μl serum-free DMEM, 0.15 μl Fugene 6 reagent, 40 ng p21-luc, 10 ng GFP were mixed gently and incubated at rt for 30 minutes; (2), then 98 μl DMEM (with 10% FBS, 1% penicillin and streptomycin) was added to the DNA: Fugene 6 reagent complex and mixed gently. For transfection, the medium was removed and replaced with 100 μl/well transfection media which was prepared according to the procedure above. After incubating the cells for 24 hours at 37° C. in 5% CO2, fresh media and test compounds were added to the wells and the cells further incubated for 15 hours at 37° C. in 5% CO2. Cells were lysed by adding 80 μl/well of a cell culture lysis reagent (Promega). […] 100 μl luciferase assay reagent (Promega) was then added to every 20 μl cell lysate for luminometer detection. […] Induction activity for specific representative compounds can be found in Table 3.

Chain of recombinant human HDAC8 (Q9BY41 whole entry): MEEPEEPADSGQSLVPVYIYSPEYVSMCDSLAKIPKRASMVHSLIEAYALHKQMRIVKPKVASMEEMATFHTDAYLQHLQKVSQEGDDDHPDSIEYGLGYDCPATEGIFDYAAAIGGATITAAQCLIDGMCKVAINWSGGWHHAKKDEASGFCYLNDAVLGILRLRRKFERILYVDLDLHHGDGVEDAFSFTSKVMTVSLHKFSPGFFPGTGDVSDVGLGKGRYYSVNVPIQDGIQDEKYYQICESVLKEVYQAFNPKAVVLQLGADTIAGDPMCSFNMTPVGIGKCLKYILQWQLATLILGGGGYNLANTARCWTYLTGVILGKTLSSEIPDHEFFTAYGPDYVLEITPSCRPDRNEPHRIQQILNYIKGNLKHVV

Structure (SMILES)	IC50 (recombinant human HDAC8) [nM]	EC50 (HDAC6) [nM]	p21 RP3 [1]	p21 RP10 [1]	p21 RP30 [1]
O=C(NO)c1ccc2c(c1)CC(Nc1ccc(Br)cc1)CC2 (centres unmarked) [Example 2, 7-(4-bromo-phenylamino)-5,6,7,8-tetrahydro-naphthalene-2-carboxylic acid hydroxyamide]	680	5470	0.26	−0.06	−0.04
O=C(NO)c1ccc2c(c1)CC(Nc1ccc([N+](=O)[O-])cc1)CC2 (centres unmarked) [Example 3, 7-(4-nitro-phenylamino)-5,6,7,8-tetrahydro-naphthalene-2-carboxylic acid hydroxyamide]	3740	1860	0.08	−0.08	−0.06
O=C(NO)c1ccc2c(c1)CC(Nc1ccccn1)CC2 (centres unmarked) [Example 5, 7-(Pyridin-2-ylamino)-5,6,7,8-tetrahydro-naphthalene-2-carboxylic acid hydroxyamide]	2900				
O=C(NO)c1ccc2c(c1)CC(Nc1ccc([N+](=O)[O-])cn1)CC2 (centres unmarked) [Example 6, 7-(5-Nitro-pyridin-2-ylamino)-5,6,7,8-tetrahydro-naphthalene-2-carboxylic acid hydroxyamide]	930	2070	0.18	0.03	−0.01
O=C(NO)c1ccc2c(c1)CC(Nc1nccc(C(F)(F)F)n1)CC2 (centres unmarked) [Example 8, 7-(4-Trifluoromethyl-pyrimidin-2-ylamino)-5,6,7,8-tetrahydro-naphthalene-2-carboxylic acid hydroxyamide]	300	830	−0.12	−0.06	−0.19
CCOc1cc(C)nc(NC2CCc3ccc(C(=O)NO)cc3C2)n1 (centres unmarked) [Example 9, 7-(4-Ethoxy-6-methyl-pyrimidin-2-ylamino)-5,6,7,8-tetrahydro-naphthalene-2-carboxylic acid hydroxyamide]	290	1680	−0.21	−0.03	−0.10
Cc1ccc(-c2ccnc(NC3CCc4ccc(C(=O)NO)cc4C3)n2)cc1 (centres unmarked) [Example 11, 7-(4-p-Tolyl-pyrimidin-2-ylamino)-5,6,7,8-tetrahydro-naphthalene-2-carboxylic acid hydroxyamide]	800	5100	−0.13	−0.18	−0.18
O=C(NO)c1ccc2c(c1)CC(Nc1nccc(-c3ccc(Oc4ccccc4)cc3)n1)CC2 (centres unmarked) [Example 23, 7-[4-(4-Phenoxy-phenyl)-pyrimidin-2-ylamino]-5,6,7,8-tetrahydro-naphthalene-2-carboxylic acid hydroxyamide]	1440		0.30	0.00	−0.10
O=C(NO)c1ccc2c(c1)CC(Nc1nccc(-c3ccc4ccccc4c3)n1)CC2 (centres unmarked) [Example 33, 7-(4-Naphthalen-2-yl-pyrimidin-2-ylamino)-5,6,7,8-tetrahydro-naphthalene-2-carboxylic acid hydroxyamide]	3780		0.19	−0.20	−0.25
O=C(/C=C/c1cccnc1)NC1CCc2ccc(C(=O)NO)cc2C1 (centres unmarked) [Example 37, 7-((E)-3-Pyridin-3-yl-acryloylamino)-5,6,7,8-tetrahydro-naphthalene-2-carboxylic acid hydroxyamide]	990		−0.18	−0.05	
O=C(NO)c1ccc2c(c1)CC(NS(=O)(=O)c1cccc(Cl)c1)CC2 (centres unmarked) [Example 42, 7-(3-Chloro-benzenesulfonylamino)-5,6,7,8-tetrahydro-naphthalene-2-carboxylic acid hydroxyamide]	160				
O=C(NO)c1cc2c(cc1F)CCC(Nc1ncccn1)C2 (centres unmarked) [Example 49, 3-Fluoro-7-(pyrimidin-2-ylamino)-5,6,7,8-tetrahydro-naphthalene-2-carboxylic acid hydroxyamide]		4300	0.50	0.08	0.00
O=C(NO)c1ccc2c(c1)CC(Nc1nccc(-c3cccnc3)n1)CN2 (centres unmarked) [Example 53]		11800	0.18	0.03	0.02
O=C(NO)c1ccc2c(c1)CC(NS(=O)(=O)c1ccc(Cl)cc1)CN2 (centres unmarked) [Example 60, 3-(4-Chloro-benzenesulfonylamino)-1,2,3,4-tetrahydro-quinoline-6-carboxylic acid hydroxyamide]	1460		0.46	0.10	0.04
O=C(NO)c1ccc2c(c1)CC(NS(=O)(=O)c1cccc(Cl)c1)CN2 (centres unmarked) [Example 61, 3-(3-Chloro-benzenesulfonylamino)-1,2,3,4-tetrahydro-quinoline-6-carboxylic acid hydroxyamide]	970		0.21	0.07	0.04
O=C(NO)c1ccc2c(c1)CC(NS(=O)(=O)c1cccc(F)c1)CN2 (centres unmarked) [Example 62, 3-(3-Fluoro-benzenesulfonylamino)-1,2,3,4-tetrahydro-quinoline-6-carboxylic acid hydroxyamide]	1140		0.13	0.02	0.01
O=C(NO)c1ccc2c(c1)CC(NS(=O)(=O)c1cccc(OC(F)(F)F)c1)CN2 (centres unmarked) [Example 63, 3-(3-Trifluoromethoxy-benzenesulfonylamino)-1,2,3,4-tetrahydro-quinoline-6-carboxylic acid hydroxyamide]	1610		0.11	0.04	0.01
COc1ccc(S(=O)(=O)NC2CNc3ccc(C(=O)NO)cc3C2)cc1OC (centres unmarked) [Example 64, 3-(3,4-Dimethoxy-benzenesulfonylamino)-1,2,3,4-tetrahydro-quinoline-6-carboxylic acid hydroxyamide]	1220		−0.02	0.06	0.04
